system: PC3 cells; test: NAMPT Cell Proliferation Assay; format: cell-based; conditions: Homo sapiens, PC-3, 120 h, 5 days incubation, cell viability by Cell Titer Glo
Summary of the method: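 Five-day CellTiter-Glo viability readout in PC3 cells grown in RPMI/10% heat-inactivated FBS. Compounds added after overnight attachment as a 10-fold dilution series, […]. Percent inhibition fitted to sigmoidal dose-response to derive IC50.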

| Structure (SMILES) | IC50 |
| --- | --- |
| Cc1ncccc1N1CC(C(=O)Nc2ccc(C3CCN(C(=O)[C@@H]4CCC(=O)N4)CC3)cc2)C1 [Example 174, 1-(2-methylpyridin-3-yl)-N-{4-[1-(5-oxo-L-prolyl)piperidin-4-yl]phenyl}azetidine-3-carboxamide] | 1130 nM |
| CCOCCC(=O)N1CCC(c2ccc(NC(=O)C3CN(c4cccnc4C)C3)cc2)CC1 [Example 175, N-{4-[1-(3-ethoxypropanoyl)piperidin-4-yl]phenyl}-1-(2-methylpyridin-3-yl)azetidine-3-carboxamide] | 683 nM |
| Cc1ncccc1N1CC(C(=O)Nc2ccc(C3CCN(C(=O)CCC(C)C)CC3)cc2)C1 [Example 176, N-{4-[1-(4-methylpentanoyl)piperidin-4-yl]phenyl}-1-(2-methylpyridin-3-yl)azetidine-3-carboxamide] | 218 nM |
| Cc1ncccc1N1CC(C(=O)Nc2ccc(C3CCN(C(=O)C4(C)CCCCC4)CC3)cc2)C1 [Example 177, N-(4-{1-[(1-methylcyclohexyl)carbonyl]piperidin-4-yl}phenyl)-1-(2-methylpyridin-3-yl)azetidine-3-carboxamide] | 107 nM |
| CC(=O)N1CCC(c2ccc(NC(=O)C3CN(c4cccnc4C)C3)cc2)CC1 [Example 178, N-[4-(1-acetylpiperidin-4-yl)phenyl]-1-(2-methylpyridin-3-yl)azetidine-3-carboxamide] | 300 nM |
| Cc1ncccc1N1CC(C(=O)Nc2ccc(C3CCN(C(=O)CC4CCCCC4)CC3)cc2)C1 [Example 179, N-{4-[1-(cyclohexylacetyl)piperidin-4-yl]phenyl}-1-(2-methylpyridin-3-yl)azetidine-3-carboxamide] | 192 nM |
| CC(=O)N[C@@H](CC(C)C)C(=O)N1CCC(c2ccc(NC(=O)C3CN(c4cccnc4C)C3)cc2)CC1 [Example 180, N-{4-[1-(N-acetyl-L-leucyl)piperidin-4-yl]phenyl}-1-(2-methylpyridin-3-yl)azetidine-3-carboxamide] | 164 nM |
| CCC(=O)N1CCC(c2ccc(NC(=O)C3CN(c4cccnc4C)C3)cc2)CC1 [Example 181, 1-(2-methylpyridin-3-yl)-N-[4-(1-propanoylpiperidin-4-yl)phenyl]azetidine-3-carboxamide] | 238 nM |
| Cc1ncccc1N1CC(C(=O)Nc2ccc(C3CCN(C(=O)CC(F)(F)F)CC3)cc2)C1 [Example 182, 1-(2-methylpyridin-3-yl)-N-{4-[1-(3,3,3-trifluoropropanoyl)piperidin-4-yl]phenyl}azetidine-3-carboxamide] | 87.9 nM |
| COCCOCC(=O)N1CCC(c2ccc(NC(=O)C3CN(c4cccnc4C)C3)cc2)CC1 [Example 183, N-(4-{1-[(2-methoxyethoxy)acetyl]piperidin-4-yl}phenyl)-1-(2-methylpyridin-3-yl)azetidine-3-carboxamide] | 346 nM |
| Cc1ncccc1N1CC(C(=O)Nc2ccc(C3CCN(C(=O)CCN4CCOCC4)CC3)cc2)C1 [Example 184, 1-(2-methylpyridin-3-yl)-N-(4-{1-[3-(morpholin-4-yl)propanoyl]piperidin-4-yl}phenyl)azetidine-3-carboxamide] | 604 nM |
| Cc1ncccc1N1CC(C(=O)Nc2ccc(C3CCN(C(=O)C(C)(C)C)CC3)cc2)C1 [Example 185, N-{4-[1-(2,2-dimethylpropanoyl)piperidin-4-yl]phenyl}-1-(2-methylpyridin-3-yl)azetidine-3-carboxamide] | 74.2 nM |
| Cc1ccc(C(=O)N2CCC(c3ccc(NC(=O)C4CN(c5cccnc5C)C4)cc3)CC2)s1 [Example 186, 1-(2-methylpyridin-3-yl)-N-(4-{1-[(5-methylthiophen-2-yl)carbonyl]piperidin-4-yl}phenyl)azetidine-3-carboxamide] | 627 nM |
| Cc1ncccc1N1CC(C(=O)Nc2ccc(C3CCN(C(=O)c4cccs4)CC3)cc2)C1 [Example 187, 1-(2-methylpyridin-3-yl)-N-{4-[1-(thiophen-2-ylcarbonyl)piperidin-4-yl]phenyl}azetidine-3-carboxamide] | 20.6 nM |
| Cc1ncccc1N1CC(C(=O)Nc2ccc(C3CCN(C(=O)c4cccn4C)CC3)cc2)C1 [Example 188, 1-(2-methylpyridin-3-yl)-N-(4-{1-[(1-methyl-1H-pyrrol-2-yl)carbonyl]piperidin-4-yl}phenyl)azetidine-3-carboxamide] | 22.4 nM |
| Cc1ncccc1N1CC(C(=O)Nc2ccc(C3CCN(C(=O)c4ccco4)CC3)cc2)C1 [Example 189, N-{4-[1-(furan-2-ylcarbonyl)piperidin-4-yl]phenyl}-1-(2-methylpyridin-3-yl)azetidine-3-carboxamide] | 14.6 nM |
| Cc1ncccc1N1CC(C(=O)Nc2ccc(C3CCN(C(=O)CCN4CCCCC4)CC3)cc2)C1 [Example 190, 1-(2-methylpyridin-3-yl)-N-(4-{1-[3-(piperidin-1-yl)propanoyl]piperidin-4-yl}phenyl)azetidine-3-carboxamide] | 694 nM |
| CCOCC(=O)N1CCC(c2ccc(NC(=O)C3CN(c4cccnc4C)C3)cc2)CC1 [Example 191, N-{4-[1-(ethoxyacetyl)piperidin-4-yl]phenyl}-1-(2-methylpyridin-3-yl)azetidine-3-carboxamide] | 677 nM |

| Structure (SMILES) | IC50 |
| --- | --- |
| Cc1ncccc1N1CC(C(=O)Nc2ccc(C3CCN(C(=O)CC(C)(C)C)CC3)cc2)C1 [Example 192, N-{4-[1-(3,3-dimethylbutanoyl)piperidin-4-yl]phenyl}-1-(2-methylpyridin-3-yl)azetidine-3-carboxamide] | 69.3 nM |
| CCC(C)(C)C(=O)N1CCC(c2ccc(NC(=O)C3CN(c4cccnc4C)C3)cc2)CC1 [Example 193, N-{4-[1-(2,2-dimethylbutanoyl)piperidin-4-yl]phenyl}-1-(2-methylpyridin-3-yl)azetidine-3-carboxamide] | 71 nM |
| CCCC(=O)N1CCC(c2ccc(NC(=O)C3CN(c4cccnc4C)C3)cc2)CC1 [Example 194, N-[4-(1-butanoylpiperidin-4-yl)phenyl]-1-(2-methylpyridin-3-yl)azetidine-3-carboxamide] | 124 nM |
| COCC(=O)N1CCC(c2ccc(NC(=O)C3CN(c4cccnc4C)C3)cc2)CC1 [Example 195, N-{4-[1-(methoxyacetyl)piperidin-4-yl]phenyl}-1-(2-methylpyridin-3-yl)azetidine-3-carboxamide] | 701 nM |
| Cc1ncccc1N1CC(C(=O)Nc2ccc(C3CCN(C(=O)C4CCCCC4)CC3)cc2)C1 [Example 196, N-{4-[1-(cyclohexylcarbonyl)piperidin-4-yl]phenyl}-1-(2-methylpyridin-3-yl)azetidine-3-carboxamide] | 111 nM |
| Cc1ncccc1N1CC(C(=O)Nc2ccc(C3CCN(C(=O)CC(C)C)CC3)cc2)C1 [Example 197, N-{4-[1-(3-methylbutanoyl)piperidin-4-yl]phenyl}-1-(2-methylpyridin-3-yl)azetidine-3-carboxamide] | 103 nM |
| Cc1ncccc1N1CC(C(=O)Nc2ccc(C3CCN(C(=O)C(C)C(C)C)CC3)cc2)C1 (centres unmarked) [Example 198, N-{4-[1-(2,3-dimethylbutanoyl)piperidin-4-yl]phenyl}-1-(2-methylpyridin-3-yl)azetidine-3-carboxamide] | 71.6 nM |
| O=C(Nc1ccc(OC2CN(C(=O)c3ccc(F)cc3)C2)cc1)C1CN(c2ccnnc2)C1 [Example 199, N-(4-{[1-(4-fluorobenzoyl)azetidin-3-yl]oxy}phenyl)-1-(pyridazin-4-yl)azetidine-3-carboxamide] | 97.4 nM |
| O=C(Nc1ccc(OC2CN(C(=O)c3ccc(F)cc3F)C2)cc1)C1CN(c2ccnnc2)C1 [Example 200, N-(4-{[1-(2,4-difluorobenzoyl)azetidin-3-yl]oxy}phenyl)-1-(pyridazin-4-yl)azetidine-3-carboxamide] | 71.9 nM |
| O=C(Nc1ccc(OC2CN(C(=O)C(F)(F)c3ccccc3)C2)cc1)C1CN(c2ccnnc2)C1 [Example 201, N-[4-({1-[difluoro(phenyl)acetyl]azetidin-3-yl}oxy)phenyl]-1-(pyridazin-4-yl)azetidine-3-carboxamide] | 60.9 nM |
| O=C(Nc1ccc(OC2CN(C(=O)C3CCC(F)(F)CC3)C2)cc1)C1CN(c2ccnnc2)C1 [Example 202, N-[4-({1-[(4,4-difluorocyclohexyl)carbonyl]azetidin-3-yl}oxy)phenyl]-1-(pyridazin-4-yl)azetidine-3-carboxamide] | 168 nM |
| O=C(Nc1ccc(OC2CN(C(=O)Cc3ccc(F)cc3)C2)cc1)C1CN(c2ccnnc2)C1 [Example 203, N-[4-({1-[(4-fluorophenyl)acetyl]azetidin-3-yl}oxy)phenyl]-1-(pyridazin-4-yl)azetidine-3-carboxamide] | 606 nM |
| O=C(Nc1ccc(C2CCN(C(=O)CC3CCCC3)CC2)cc1)[C@H]1CCN(c2cccnc2)C1 [Example 204, (3S)—N-{4-[1-(cyclopentylacetyl)piperidin-4-yl]phenyl}-1-(pyridin-3-yl)pyrrolidine-3-carboxamide] | 24.5 nM |
| O=C(Nc1ccc(OC2CN(C(=O)c3ccc(C(F)(F)F)cc3)C2)cc1)C1CN(c2ccnnc2)C1 [Example 205, 1-(pyridazin-4-yl)-N-[4-({1-[4-(trifluoromethyl)benzoyl]azetidin-3-yl}oxy)phenyl]azetidine-3-carboxamide] | 38.7 nM |
| O=C(Nc1ccc(OC2CN(C(=O)c3ccccc3)C2)cc1)C1CN(c2ccnnc2)C1 [Example 206, N-{4-[(1-benzoylazetidin-3-yl)oxy]phenyl}-1-(pyridazin-4-yl)azetidine-3-carboxamide] | 67.4 nM |
| CC(C)(O)C(=O)N1CC(Oc2ccc(NC(=O)C3CN(c4ccnnc4)C3)cc2)C1 [Example 207, N-(4-{[1-(2-hydroxy-2-methylpropanoyl)azetidin-3-yl]oxy}phenyl)-1-(pyridazin-4-yl)azetidine-3-carboxamide] | 671 nM |
| O=C(Nc1ccc(OC2CN(C(=O)C3CCOC3)C2)cc1)C1CN(c2ccnnc2)C1 (centres unmarked) [Example 208, 1-(pyridazin-4-yl)-N-(4-{[1-(tetrahydrofuran-3-ylcarbonyl)azetidin-3-yl]oxy}phenyl)azetidine-3-carboxamide] | 593 nM |

Source: patent publication US20130303509A1, “NAMPT INHIBITORS” (AbbVie Inc., priority 2012, published 2013)
